Results as given in article PMC4275348 (Molecular microbiology, 2014).
Changes are numbered by the printed parent chain.

Key:
Kin^off LuxN mutants = assay: Bioluminescence of V. harveyi XK847 harboring Kin^off luxN alleles; assay type: cell-based, Vibrio harveyi
LuxN^H210T = biological target: T1, LuxN^H210T (Vibrio campbellii, UniProt A7MRY4, H210T); assay: Bioluminescence of V. harveyi XK006 carrying luxN H210T; assay type: cell-based, Vibrio harveyi; settings: 1 μM AHL
T1 sequence (A7MRY4 1-849 H210T): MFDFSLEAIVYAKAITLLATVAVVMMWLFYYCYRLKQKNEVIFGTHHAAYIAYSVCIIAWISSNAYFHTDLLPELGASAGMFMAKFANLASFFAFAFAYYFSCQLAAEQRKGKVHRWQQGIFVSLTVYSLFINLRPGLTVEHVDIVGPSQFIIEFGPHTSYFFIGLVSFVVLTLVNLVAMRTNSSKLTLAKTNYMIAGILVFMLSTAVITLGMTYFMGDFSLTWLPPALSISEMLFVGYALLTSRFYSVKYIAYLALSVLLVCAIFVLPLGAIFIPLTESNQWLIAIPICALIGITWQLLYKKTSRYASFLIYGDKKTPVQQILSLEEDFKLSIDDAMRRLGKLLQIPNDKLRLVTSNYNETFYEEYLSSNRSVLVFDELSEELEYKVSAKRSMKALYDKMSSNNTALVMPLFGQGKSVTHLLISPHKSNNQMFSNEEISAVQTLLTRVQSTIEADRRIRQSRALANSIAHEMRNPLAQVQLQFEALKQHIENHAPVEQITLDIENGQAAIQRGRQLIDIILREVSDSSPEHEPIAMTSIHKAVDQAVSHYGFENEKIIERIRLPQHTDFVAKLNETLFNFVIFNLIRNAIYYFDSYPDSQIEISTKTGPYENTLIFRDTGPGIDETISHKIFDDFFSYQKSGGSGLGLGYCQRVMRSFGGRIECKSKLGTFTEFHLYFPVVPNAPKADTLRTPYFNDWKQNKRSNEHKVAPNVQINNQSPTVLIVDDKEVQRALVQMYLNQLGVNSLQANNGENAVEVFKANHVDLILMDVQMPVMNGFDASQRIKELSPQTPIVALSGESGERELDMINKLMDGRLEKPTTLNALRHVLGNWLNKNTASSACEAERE

luxN^T159I/Y193K = biological target: T2, luxN^T159I/Y193K (Vibrio campbellii, UniProt A7MRY4, N193K/T159I); assay: Bioluminescence of V. harveyi XK006 carrying luxN T159I/Y193K; assay type: cell-based, Vibrio harveyi
T2 sequence (A7MRY4 1-849 T159I/N193K): T1 sequence (A7MRY4 1-849 H210T) with T159I, N193K, T210H

WT LuxN = WT LuxN (Vibrio campbellii, UniProt A7MRY4); settings: 100 nM AI-1; XK847
LuxN^H210N = biological target: T3, LuxN^H210N (Vibrio campbellii, UniProt A7MRY4, H210N); assay: Bioluminescence of V. harveyi XK006 carrying luxN H210N; assay type: cell-based, Vibrio harveyi; settings: dose-dependent light production
T3 sequence (A7MRY4 1-849 H210N): T1 sequence (A7MRY4 1-849 H210T) with T210N

C[C@@H](O)CC(=O)N[C@H]1CCOC1=O [3OH-C4 HSL, N-((R)-3-hydroxybutanoyl)-L-homoserine lactone]
light production / detection (Kin^off LuxN mutants): produced maximal light | response (light production) (LuxN^H210T): modest response | response (dose-dependent light production) (luxN^T159I/Y193K): most potent agonist | increase in light production (WT LuxN): 1000 fold | less sensitivity than for the other two C4 AHLs (3O-C4 HSL, C4 HSL) (LuxN^H210N): 10 fold
